The record followed here is publication PMC6273079, “Purification of Flavonoids from Chinese Bayberry (Morella rubra Sieb. et Zucc.) Fruit Extracts and α-Glucosidase Inhibitory Activities of Different Fractionations” (Molecules, 2016).

Assay [1] in a line: DPPH radical scavenging activity. The conditions noted are these: samples from BQ pulp; 1 h reaction, 515 nm; mean ± SD, n = 3. Here is the method:
DPPH radical scavenging activity was measured according to Brand-Williams, Cuvelier, and Berset with modifications. The reaction for scavenging DPPH radical was carried out by adding 2 μL sample to 198 μL 25 μg/mL DPPH solution at room temperature. Absorbance at 515 nm before (A0) and after (A1) the reaction (1 h) was recorded using a micro-plate reader (BioTech, Synergy H1, Winooski, VT, USA). The radical scavenging activity was calculated as: Scavenging rate (%) = (A0 − A1)/A0 × 100 (1)

Assay [2] can be described thus: ABTS radical scavenging activity. The conditions noted are these: samples from BQ pulp; 6 min, 734 nm; mean ± SD, n = 3. Here is the method:
ABTS assay was carried out using a spectrophotometer as reported. The ABTS radical cation was generated by reacting 7 mmol/L ABTS with 2.45 mmol/L potassium persulfate, and the mixture was allowed to stand in the dark at room temperature for 16 h before use. Before analysis, the ABTS solution was diluted with ethanol to an absorbance of 0.70 ± 0.05 at a wavelength of 734 nm. The absorbance at 734 nm was recorded for 6 min after mixing of 0.1 mL of the tested samples dissolved in ethanol with 3.9 mL of ABTS solution. The radical scavenging activity was calculated as the Equation (1) above.

In the case of quercetin-3-O-rhamnoside [Q3R], the “IC50 of DPPH scavenging activity” value in assay [1] was 2.55 µg/mL. In addition, the “IC50 of ABTS radical scavenging activity” value in assay [2] is 2.28 ± 0.05 µg/mL.

Turning to `O=c1c(O[C@@H]2O[C@H](CO)[C@H](O)[C@H](O)[C@H]2O)c(-c2ccc(O)c(O)c2)oc2cc(O)cc(O)c12` [Q3Gal, quercetin-3-O-galactoside], in assay [1], the “IC50 of DPPH scavenging activity” value was 2.43 µg/mL. In assay [2], the “IC50 of ABTS radical scavenging activity” value was 2.09 ± 0.01 µg/mL.

Consider `C[C@@H]1O[C@@H](Oc2c(-c3cc(O)c(O)c(O)c3)oc3cc(O)cc(O)c3c2=O)[C@H](O)[C@H](O)[C@H]1O` [M3R, myricetin-3-O-rhamnoside], for which the “IC50 of DPPH scavenging activity” value in assay [1] worked out at 2.81 µg/mL. Further, the “IC50 of ABTS radical scavenging activity” value in assay [2] worked out at 3.24 ± 0.02 µg/mL.

With `OC[C@H]1O[C@@H](Oc2cc3c(O)cc(O)cc3[o+]c2-c2ccc(O)c(O)c2)[C@H](O)[C@@H](O)[C@@H]1O` [C3G, cyanidin-3-O-glucoside], in assay [1], the “IC50 of DPPH scavenging activity” value turned out to be 3.22 µg/mL. Further, the “IC50 of ABTS radical scavenging activity” value in assay [2] came to 4.19 ± 0.16 µg/mL.
